Experimental findings from patent US10717716B2, “1,3,4-oxadiazole derivative compounds as histone deacetylase 6 inhibitor, and the pharmaceutical composition comprising the same” (Chong Kun Dang Pharmaceutical Corp., priority 2015, dated 2020) are described below.

This assay has as its target T1, human recombinant HDAC6 (Homo sapiens, UniProt Q9UBN7).
T1 construct: purchased Calbiochem 382180
T1 sequence (Q9UBN7 1-1215): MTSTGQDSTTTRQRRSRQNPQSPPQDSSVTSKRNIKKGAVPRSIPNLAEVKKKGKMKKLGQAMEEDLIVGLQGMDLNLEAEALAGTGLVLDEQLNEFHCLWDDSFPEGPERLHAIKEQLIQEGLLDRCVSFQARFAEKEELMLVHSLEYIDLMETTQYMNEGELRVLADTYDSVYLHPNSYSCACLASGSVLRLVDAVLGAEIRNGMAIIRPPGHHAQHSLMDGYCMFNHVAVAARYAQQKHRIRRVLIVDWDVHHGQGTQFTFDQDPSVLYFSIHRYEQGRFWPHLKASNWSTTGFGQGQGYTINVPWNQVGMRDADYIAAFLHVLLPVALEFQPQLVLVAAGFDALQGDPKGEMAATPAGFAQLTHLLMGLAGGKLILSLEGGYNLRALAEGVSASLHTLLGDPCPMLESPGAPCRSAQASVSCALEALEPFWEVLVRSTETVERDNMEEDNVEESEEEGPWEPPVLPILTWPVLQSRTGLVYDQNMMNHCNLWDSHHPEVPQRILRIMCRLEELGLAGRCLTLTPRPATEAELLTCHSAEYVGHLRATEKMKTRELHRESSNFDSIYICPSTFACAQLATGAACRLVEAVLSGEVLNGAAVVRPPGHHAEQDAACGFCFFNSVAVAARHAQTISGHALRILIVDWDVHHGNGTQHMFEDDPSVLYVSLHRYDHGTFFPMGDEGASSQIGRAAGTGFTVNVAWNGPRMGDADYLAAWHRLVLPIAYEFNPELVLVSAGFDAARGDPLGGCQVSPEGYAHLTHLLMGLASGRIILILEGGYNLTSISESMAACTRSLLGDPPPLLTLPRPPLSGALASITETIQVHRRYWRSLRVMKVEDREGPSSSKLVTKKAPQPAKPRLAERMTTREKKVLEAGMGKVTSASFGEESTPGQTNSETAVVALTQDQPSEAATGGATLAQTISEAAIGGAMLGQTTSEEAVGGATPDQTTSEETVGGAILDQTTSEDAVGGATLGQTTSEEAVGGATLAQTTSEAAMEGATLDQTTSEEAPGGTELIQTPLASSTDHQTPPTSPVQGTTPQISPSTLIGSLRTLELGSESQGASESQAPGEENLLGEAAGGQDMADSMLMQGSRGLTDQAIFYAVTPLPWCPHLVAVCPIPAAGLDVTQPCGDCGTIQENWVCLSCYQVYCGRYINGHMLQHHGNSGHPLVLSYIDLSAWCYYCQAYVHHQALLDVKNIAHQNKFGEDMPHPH
Kind of assay: HDAC6 enzyme activity inhibition assay (HDAC Fluorimetric Drug Discovery Kit). It counts as biochemical. As to conditions: for HDAC6 selectivity (fold): HDAC6 over HDAC1; for IC50: human recombinant HDAC6, same protocol as HDAC1, read-out: HDAC6. Summed up:
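Human recombinant HDAC1 or HDAC6 (0.3 μg) reacted with 10 μM Fluor de Lys-SIRT1 substrate and 5-fold compound dilutions for 60 min at 30 °C. Developer II added for 30 min, fluorescence read at Ex 360/Em 460; IC50 calculated from the readings.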

Turning to `O=C(N1CCN(C2COC2)CC1)N(Cc1ccc(-c2nnc(C(F)F)o2)cc1)c1cccc(F)c1` [Compound 21936, N-(4-(5-(Difluoromethyl)-1,3,4-oxadiazol-2-yl)benzyl)-N-(3-fluorophenyl)-4-(oxetan-3-yl)piperazine-1-carboxamide], the “HDAC6 selectivity (fold)” value was 91 fold and the IC50 turned out to be 110 nM.
Consider `O=C(N1CCN(C2COC2)CC1)N(Cc1ccc(-c2nnc(C(F)F)o2)cc1F)c1cccc(F)c1` [Compound 21937, N-(4-(5-(Difluoromethyl)-1,3,4-oxadiazol-2-yl)-2-fluorobenzyl)-N-(3-fluorophenyl)-4-(oxetan-3-yl)piperazine-1-carboxamide], for which the “HDAC6 selectivity (fold)” value is recorded as 153 fold and the IC50 stood at 65 nM.
The like results for `O=C(N1CCN(C2COC2)CC1)N(Cc1ccc(-c2nnc(C(F)F)o2)cn1)c1cccc(F)c1` [Compound 21938, N-((5-(5-(Difluoromethyl)-1,3,4-oxadiazol-2-yl)pyridin-2-yl)methyl)-N-(3-fluorophenyl)-4-(oxetan-3-yl)piperazine-1-carboxamide] were, in that order, 122 fold and 82 nM.
As for `O=C(N1CCN(C2COC2)CC1)N(Cc1ccc(-c2nnc(C(F)F)o2)cc1)c1ccc(F)cc1` [Compound 21939, N-(4-(5-(Difluoromethyl)-1,3,4-oxadiazol-2-yl)benzyl)-N-(4-fluorophenyl)-4-(oxetan-3-yl)piperazine-1-carboxamide], the “HDAC6 selectivity (fold)” value worked out at 62 fold and the IC50 came out at 161 nM.
For `O=C(N1CCN(C2COC2)CC1)N(Cc1ccc(-c2nnc(C(F)F)o2)cc1F)c1ccc(F)cc1` [Compound 21940, N-(4-(5-(Difluoromethyl)-1,3,4-oxadiazol-2-yl)-2-fluorobenzyl)-N-(4-fluorophenyl)-4-(oxetan-3-yl)piperazine-1-carboxamide] the same measures were 118 fold and 85 nM.
On to `O=C(N1CCN(C2COC2)CC1)N(Cc1ccc(-c2nnc(C(F)F)o2)cc1)c1cccc(Cl)c1` [Compound 21942, N-(3-Chlorophenyl)-N-(4-(5-(difluoromethyl)-1,3,4-oxadiazol-2-yl)benzyl)-4-(oxetan-3-yl)piperazine-1-carboxamide], for which the “HDAC6 selectivity (fold)” value was 160 fold and the IC50 turned out to be 62 nM.
The like results for `O=C(N1CCN(C2COC2)CC1)N(Cc1ccc(-c2nnc(C(F)F)o2)cn1)c1cccc(Cl)c1` [Compound 21944, N-(3-Chlorophenyl)-N-((5-(5-(difluoromethyl)-1,3,4-oxadiazol-2-yl)pyridin-2-yl)methyl)-4-(oxetan-3-yl)piperazine-1-carboxamide] were, in that order, 201 fold and 50 nM.
In the case of `O=C(N1CCN(C2COC2)CC1)N(Cc1ccc(-c2nnc(C(F)F)o2)cc1)c1ccc(Cl)cc1` [Compound 21945, N-(4-Chlorophenyl)-N-(4-(5-(difluoromethyl)-1,3,4-oxadiazol-2-yl)benzyl)-4-(oxetan-3-yl)piperazine-1-carboxamide], the “HDAC6 selectivity (fold)” value is reported as 52 fold and the IC50 stood at 193 nM.
For `O=C(N1CCN(C2COC2)CC1)N(Cc1ccc(-c2nnc(C(F)F)o2)cc1F)c1ccc(Cl)cc1` [Compound 21946, N-(4-Chlorophenyl)-N-(4-(5-(difluoromethyl)-1,3,4-oxadiazol-2-yl)-2-fluorobenzyl)-4-(oxetan-3-yl)piperazine-1-carboxamide] the same measures were 81 fold and 123 nM.
Take `O=C(N1CCN(C2COC2)CC1)N(Cc1ccc(-c2nnc(C(F)F)o2)cn1)c1ccc(Cl)cc1` [Compound 21947, N-(4-Chlorophenyl)-N-((5-(5-(difluoromethyl)-1,3,4-oxadiazol-2-yl)pyridin-2-yl)methyl)-4-(oxetan-3-yl)piperazine-1-carboxamide]: the “HDAC6 selectivity (fold)” value was 112 fold and the IC50 was 90 nM.
The like results for `COc1cccc(N(Cc2ccc(-c3nnc(C(F)F)o3)cn2)C(=O)N2CCN(C3COC3)CC2)c1` [Compound 21950, N-((5-(5-(Difluoromethyl)-1,3,4-oxadiazol-2-yl)pyridin-2-yl)methyl)-N-(3-methoxyphenyl)-4-(oxetan-3-yl)piperazine-1-carboxamide] were, in that order, 64 fold and 157 nM.
For `COc1ccc(N(Cc2ccc(-c3nnc(C(F)F)o3)cc2)C(=O)N2CCN(C3COC3)CC2)cc1` [Compound 21951, N-(4-(5-(Difluoromethyl)-1,3,4-oxadiazol-2-yl)benzyl)-N-(4-methoxyphenyl)-4-(oxetan-3-yl)piperazine-1-carboxamide] the same measures were 26 fold and 391 nM.
For `COc1ccc(N(Cc2ccc(-c3nnc(C(F)F)o3)cc2F)C(=O)N2CCN(C3COC3)CC2)cc1` [Compound 21952, N-(4-(5-(Difluoromethyl)-1,3,4-oxadiazol-2-yl)-2-fluorobenzyl)-N-(4-methoxyphenyl)-4-(oxetan-3-yl)piperazine-1-carboxamide] the same measures were 58 fold and 172 nM.
In the case of `COc1ccc(N(Cc2ccc(-c3nnc(C(F)F)o3)cn2)C(=O)N2CCN(C3COC3)CC2)cc1` [Compound 21953, N-((5-(5-(Difluoromethyl)-1,3,4-oxadiazol-2-yl)pyridin-2-yl)methyl)-N-(4-methoxyphenyl)-4-(oxetan-3-yl)piperazine-1-carboxamide], the “HDAC6 selectivity (fold)” value stood at 62 fold and the IC50 came to 160 nM.
Take `O=C(N1CCN(C2COC2)CC1)N(Cc1ccc(-c2nnc(C(F)F)o2)cc1F)c1ccccc1` [Compound 21955, N-(4-(5-(Difluoromethyl)-1,3,4-oxadiazol-2-yl)-2-fluorobenzyl)-4-(oxetan-3-yl)-N-phenylpiperazine-1-carboxamide]: the “HDAC6 selectivity (fold)” value amounted to 113 fold and the IC50 stood at 89 nM.
In the case of `O=C(NCCN1CCCC1)N(Cc1ccc(-c2nnc(C(F)F)o2)cc1F)c1ccccc1` [Compound 21956, 1-(4-(5-(Difluoromethyl)-1,3,4-oxadiazol-2-yl)-2-fluorobenzyl)-1-phenyl-3-(2-(pyrrolidin-1-yl)ethyl)urea], the “HDAC6 selectivity (fold)” value was found to be 60 fold and the IC50 stood at 167 nM.
Take `O=C(NCCN1CCCCC1)N(Cc1ccc(-c2nnc(C(F)F)o2)cc1F)c1ccccc1` [Compound 21957, 1-(4-(5-(Difluoromethyl)-1,3,4-oxadiazol-2-yl)-2-fluorobenzyl)-1-phenyl-3-(2-(piperidin-1-yl)ethyl)urea]: the “HDAC6 selectivity (fold)” value is on record as 116 fold and the IC50 is 86 nM.
For `CN1CCN(CCNC(=O)N(Cc2ccc(-c3nnc(C(F)F)o3)cc2F)c2ccccc2)CC1` [Compound 21958, 1-(4-(5-(Difluoromethyl)-1,3,4-oxadiazol-2-yl)-2-fluorobenzyl)-3-(2-(4-methylpiperazin-1-yl)ethyl)-1-phenylurea] the same measures were 115 fold and 87 nM.
Take `CN1CCC(c2ccc(N(Cc3ccc(-c4nnc(C(F)F)o4)cc3F)C(=O)N3CCS(=O)(=O)CC3)cc2)CC1` [Compound 21970, N-(4-(5-(difluoromethyl)-1,3,4-oxadiazol-2-yl)-2-fluorobenzyl)-N-(4-(1-methylpiperidin-4-yl)phenyl)thiomorpholine-4-carboxamide 1,1-dioxide]: the “HDAC6 selectivity (fold)” value was 6 fold and the IC50 is 1550 nM.
For `CCN1CCN(CCOc2ccc(N(Cc3ccc(-c4nnc(C(F)F)o4)cc3F)C(=O)N3CCS(=O)(=O)CC3)cc2)CC1` [Compound 21971, N-(4-(5-(difluoromethyl)-1,3,4-oxadiazol-2-yl)-2-fluorobenzyl)-N-(4-(2-(4-ethylpiperazin-1-yl)ethoxy)phenyl)thiomorpholine-4-carboxamide 1,1-dioxide], the “HDAC6 selectivity (fold)” value is listed as 59 fold and the IC50 was 169 nM.
